{"source": "ChEMBL document CHEMBL4346748", "about": "“Growth inhibition by 1-deoxy-d-allulose, a novel bioactive deoxy sugar, screened using Caenorhabditis elegans assay” (Bioorg Med Chem Lett, 2019)", "key": {"[1]": {"test_system": "Caenorhabditis elegans", "experiment": "Growth inhibition of Caenorhabditis elegans N2 assessed as body size at 42 mM incubated for 72 hrs by microscopic method relative to control", "assay_type": "functional"}, "[2]": {"test_system": "Caenorhabditis elegans", "experiment": "Growth inhibition of Caenorhabditis elegans N2 assessed as reduction in body size incubated for 72 hrs by microscopic method", "assay_type": "functional", "settings": "for GI50: N2, 72 h"}, "[3]": {"test_system": "Caenorhabditis elegans", "experiment": "Ratio of GI50 for D-Alu to GI50 for test compound for growth inhibition of Caenorhabditis elegans N2 assessed as reduction in body size incubated for 72 hrs by microscopic method", "assay_type": "functional"}, "[4]": {"test_system": "Caenorhabditis elegans", "experiment": "Growth inhibition of Caenorhabditis elegans N2 assessed as reduction in motility at 42 mM incubated for 72 hrs by microscopic method", "assay_type": "functional, organism-based"}, "[5]": {"experiment": "Toxicity in Caenorhabditis elegans N2 assessed as mortality at 42 mM incubated for 72 hrs by microscopic method", "settings": "42000 µM"}, "[6]": {"test_system": "Caenorhabditis elegans", "experiment": "Growth inhibition of Caenorhabditis elegans N2 assessed as effect on body size at 42 mM incubated for 72 hrs by microscopic method", "assay_type": "functional, organism-based"}, "[7]": {"test_system": "Caenorhabditis elegans", "experiment": "Growth inhibition of Caenorhabditis elegans N2 assessed as reduction in body size at 9.5 mM incubated for 72 hrs in presence of D-ribose by microscopic method", "assay_type": "functional, organism-based"}, "[8]": {"test_system": "Caenorhabditis elegans", "experiment": "Growth inhibition of Caenorhabditis elegans N2 assessed as effect on body shape at 42 mM incubated for 72 hrs by microscopic method", "assay_type": "functional, organism-based"}, "[9]": {"test_system": "Caenorhabditis elegans", "experiment": "Growth inhibition of Caenorhabditis elegans N2 assessed as reduction in body size at 9.5 mM incubated for 72 hrs in presence of D-fructose by microscopic method", "assay_type": "functional, organism-based"}, "[10]": {"test_system": "Caenorhabditis elegans", "experiment": "Growth inhibition of Caenorhabditis elegans N2 assessed as reduction in body size at 9.5 mM incubated for 72 hrs in presence of up to 67 mM D-glucose by microscopic method", "assay_type": "functional, organism-based"}}, "note": "Activity calls are given as the source filed them. No cut-off for these calls is given here."}
{"smiles": "CC(=O)[C@H](O)[C@H](O)[C@@H](O)CO", "values": [{"measurement": "growth inhibition (GI)", "setting": "[1]", "value": "inactive"}]}
{"smiles": "O=C(CO)[C@H](O)[C@H](O)CCO", "values": [{"measurement": "growth inhibition (GI)", "setting": "[1]", "value": "inactive"}]}
{"smiles": "C[C@@H](O)[C@@H](O)[C@@H](O)C(=O)CO", "values": [{"measurement": "growth inhibition (GI)", "setting": "[1]", "value": "inactive"}]}
{"smiles": "O=C(CO)[C@H](O)[C@H](O)[C@H](O)CO", "values": [{"measurement": "GI50", "setting": "[2]", "value": 52.7, "unit": "mM"}]}
{"smiles": "CC(=O)[C@@H](O)[C@@H](O)[C@@H](O)CO", "values": [{"measurement": "growth inhibition (GI)", "setting": "[1]", "value": "inactive"}]}
{"smiles": "CC(=O)[C@H](O)[C@@H](O)[C@H](O)CO", "values": [{"measurement": "growth inhibition (GI)", "setting": "[1]", "value": "inactive"}]}
{"smiles": "CC(=O)[C@@H](O)[C@H](O)[C@H](O)CO", "values": [{"measurement": "growth inhibition (GI)", "setting": "[1]", "value": "inactive"}]}
{"smiles": "CC(=O)[C@H](O)[C@@H](O)[C@@H](O)CO", "values": [{"measurement": "growth inhibition (GI)", "setting": "[1]", "value": "inactive"}]}
{"smiles": "CC(=O)[C@H](O)[C@H](O)[C@H](O)CO", "values": [{"measurement": "RatioGI50", "setting": "[3]", "value": 10}, {"measurement": "growth inhibition (GI)", "setting": "[4]", "value": "Active"}, {"measurement": "Activity", "setting": "[5]", "value": "Non-Toxic"}, {"measurement": "growth inhibition (GI)", "setting": "[6]", "value": "Active"}, {"measurement": "growth inhibition (GI)", "setting": "[7]", "value": "inactive"}, {"measurement": "Activity", "setting": "[1]", "value": 5.7, "unit": "%"}, {"measurement": "growth inhibition (GI)", "setting": "[2]", "value": "Dose-dependent effect"}, {"measurement": "GI50", "setting": "[2]", "value": 5.4, "unit": "mM"}, {"measurement": "growth inhibition (GI)", "setting": "[8]", "value": "Active"}, {"measurement": "growth inhibition (GI)", "setting": "[9]", "value": "inactive"}, {"measurement": "growth inhibition (GI)", "setting": "[10]", "value": "Active"}]}
{"smiles": "CC(=O)[C@@H](O)[C@H](O)[C@@H](O)CO", "values": [{"measurement": "growth inhibition (GI)", "setting": "[1]", "value": "inactive"}]}
{"smiles": "CC(=O)[C@@H](O)[C@@H](O)[C@H](O)CO", "values": [{"measurement": "growth inhibition (GI)", "setting": "[1]", "value": "inactive"}]}
